Source: patent US20040234501A1, “Hepatitis b virus proliferation inhibitor” (priority 2001, published 2004)

Key:
[1] = Liver function (GPT) in a patient with chronic hepatitis B; type: in vivo, human
Procedure: (§1) Confirmation of the effect of IFN administration to a patient with chronic hepatitis B:
(§2) Therefore, 3,000,000 units of IFN-α were administered for a total of 28 days.

hepatitis B virus = assay: Amount of hepatitis B virus in the blood (HBV-DNA) and emergence of resistant virus in a patient with chronic hepatitis B; type: in vivo, human; details: after termination of IFN-α; 3,000,000 units for a total of 28 days
Procedure: as §1, §2

With Nc1ccn([C@@H]2CS[C@H](CO)O2)c(=O)n1 [lamivudine, reference compound] the “GPT (liver function acutely worsened)” value ([1]; about 3 months after discontinuation of second lamivudine administration) was 567.
For interferon-α [IFN-α], the liver function ([1]; 3,000,000 units of IFN-α in combination with lamivudine, resistant virus present) was “further worsened”, the liver function ([1]; after termination of IFN-α, 3,000,000 units for a total of 28 days) was “worsened” and the “amount of hepatitis B virus in the blood” value (hepatitis B virus) was “again increased”.
